# According to patent US20040197852A1, “Method of preparing peptide fragment having cell death inhibitory activity” (priority 2001, published 2004):
# Tested on: Dami cells
# Assay: Cell death-inhibitory activity in Dami cells in serum-free medium with BSA and linoleic acid
# Type: cell-based, human
# Details: each 1 ppm selenium added to the system; Dami cells
# From the text: For screening a cell death-inhibitory activity for isolation and identification of the C-terminal fragment of selenoprotein P as described above, a culture system of Dami cells, human megakaryoblasts, with serum free culture medium supplemented with albumin was suitably used. […] With culture medium containing 0.01 to 0.5% human serum albumin, the cells grow normally but on Day 4 and henceforth all the cells are put to death abruptly. A cell death-inhibitory activity in a sample may be measured by applying the sample to this culture system.
# The cells were cultured for three days and recovered for assay. The recovered cells were washed twice with SA/0.05% skimmed BSA (manufactured by SIGMA) containing 4 μM linoleic acid and suspended in the same medium at 3×10^4 cells/mL. The cell suspension was then added to a 96-well plate in each 200 μl for wells for sample addition or in each 100 μl for wells for serial dilution. To the wells for sample addition was added 2 μl sample and, after stirring, a serial dilution was made with the wells containing 100 μl cell suspension. The plate was incubated at 37° C. in CO2 incubator for 4 to 5 days followed by assessment. In this system, Dami cells will die in the wells added with samples having no activity but will survive in the wells added with samples having the activity on Day 4 and thenceforth. Thus, assessment was made with to what folds of dilution of tested samples the living cells could survive. Therefore, the higher the value in the following table, the higher a cell death-inhibitory activity.
# After washing the column with about 8 mL PBS, elution was made with 0.1 M glycine, pH 2.8. The eluate fractions were neutralized with about 1/10 amount of 1 M Tris-HCl. The fraction that passed through chromatographic column and the washing fractions were pooled, concentrated with SpeedVac, and dialyzed against PBS.
row,Molecule,Cell death-inhibitory activity (Folds of dilution)
1,"Selenoprotein P untreated: full-length selenoprotein P purified from human plasma in Example 1, M.W. around 67,000 in SDS-PAGE (protein, UniProt P49908 20-381, looked up) Selenoprotein P: ESQDQSSLCKQPPAWSIRDQDPMLNSNGSVTVVALLQASUYLCILQASKLEDLRVKLKKEGYSNISYIVVNHQGISSRLKYTHLKNKVSEHIPVYQQEENQTDVWTLLNGSKDDFLIYDRCGRLVYHLGLPFSFLTFPYVEEAIKIAYCEKKCGNCSLTTLKDEDFCKRVSLATVDKTVETPSPHYHHEHHHNHGHQHLGSSELSENQQPGAPNAPTHPAPPGLHHHHKHKGQHRQGHPENRDMPASEDLQDLQKKLCRKRCINQLLCKLPTDSELAPRSUCCHCRHLIFEKTGSAITUQCKENLPSLCSUQGLRAEENITESCQURLPPAAUQISQQLIPTEASASURUKNQAKKUEUPSN",5000 Folds of dilution

# Same assay, conditions: selenoprotein P digested with 1/10 weight of enzyme, 37° C., 24 hours; 2 μl sample serially diluted; Dami cell survival at 4 to 5 days
row,Molecule,Cell death-inhibitory activity (Folds of dilution)
1,Activated protein C,800 Folds of dilution
2,Elastase,600 Folds of dilution
3,Plasmin,600 Folds of dilution
4,Thrombin,600 Folds of dilution
5,Trypsin,600 Folds of dilution
6,"Selenoprotein P untreated: full-length selenoprotein P purified from human plasma in Example 1, M.W. around 67,000 in SDS-PAGE (protein, UniProt P49908 20-381, looked up) Selenoprotein P: ESQDQSSLCKQPPAWSIRDQDPMLNSNGSVTVVALLQASUYLCILQASKLEDLRVKLKKEGYSNISYIVVNHQGISSRLKYTHLKNKVSEHIPVYQQEENQTDVWTLLNGSKDDFLIYDRCGRLVYHLGLPFSFLTFPYVEEAIKIAYCEKKCGNCSLTTLKDEDFCKRVSLATVDKTVETPSPHYHHEHHHNHGHQHLGSSELSENQQPGAPNAPTHPAPPGLHHHHKHKGQHRQGHPENRDMPASEDLQDLQKKLCRKRCINQLLCKLPTDSELAPRSUCCHCRHLIFEKTGSAITUQCKENLPSLCSUQGLRAEENITESCQURLPPAAUQISQQLIPTEASASURUKNQAKKUEUPSN",400 Folds of dilution
